From patent US9370186B2 (priority 2012, dated 2016)
≈ marks a conversion by molar mass, not a printed value. Like-named read-outs stand apart in the source and are kept apart here.

What was measured:
Phytophthora infestans [1] = test: whole plant or invertebrate; assay type: in vivo; settings: for Practical dose for 70% efficacy: EC70, compound alone, preventive 24 h, potato leaf discs; for EC50: Phytophthora infestans, in Solanum tuberosum, foliar, 24 h, read-out: Practical dose for 50% efficacy
Phytophthora infestans [2] = assay type: in vivo; settings: tomatoes, 3 days after inoculation

SMILES	Practical dose for 70% efficacy (Phytophthora infestans [1]) [mg a.i./L]	EC50 (Phytophthora infestans [1]) [µg/mL]	Efficacy (%) ethaboxam alone (Phytophthora infestans [1]; ethaboxam 0.75 mg a.i./L) [%]	Efficacy (%) ethaboxam alone (Phytophthora infestans [1]; ethaboxam 1.5 mg a.i./L) [%]	Efficacy (%) ethaboxam alone (Phytophthora infestans [1]; ethaboxam 3 mg a.i./L) [%]	Efficacy (%) ethaboxam alone (Phytophthora infestans [1]; ethaboxam 6 mg a.i./L) [%]	Efficacy (%) ethaboxam alone (Phytophthora infestans [1]; ethaboxam 12 mg a.i./L) [%]	Efficacy (%) ethaboxam alone (Phytophthora infestans [1]; ethaboxam 24 mg a.i./L) [%]	Efficacy (%) ethaboxam alone (Phytophthora infestans [1]; ethaboxam 75 mg a.i./L) [%]	Efficacy in % found (Phytophthora infestans [2]; 5 ppm a.i.) [%]	Efficacy (%) fenamidone alone (Phytophthora infestans [1]; fenamidone 0.5 mg a.i./L) [%]	Efficacy (%) fenamidone alone (Phytophthora infestans [1]; fenamidone 1 mg a.i./L) [%]	Efficacy (%) fenamidone alone (Phytophthora infestans [1]; fenamidone 2 mg a.i./L) [%]	Efficacy (%) fenamidone alone (Phytophthora infestans [1]; fenamidone 4 mg a.i./L) [%]	Efficacy (%) fenamidone alone (Phytophthora infestans [1]; fenamidone 8 mg a.i./L) [%]	Efficacy (%) fenamidone alone (Phytophthora infestans [1]; fenamidone 16 mg a.i./L) [%]	Efficacy (%) fenamidone alone (Phytophthora infestans [1]; fenamidone 50 mg a.i./L) [%]	Efficacy in % found (Phytophthora infestans [2]; 0.5 ppm a.i.) [%]
CCNc1nc(CC)c(C(=O)NC(C#N)c2cccs2)s1 (centres unmarked) [ethaboxam, N-(cyano-2-thienylmethyl)-4-ethyl-2-(ethylamino)-5-thiazolcarboxamide]	27.820	15.3 (≈ 47.7 µM)	0	0	5	13	67	73	75	40								
CSC1=N[C@@](C)(c2ccccc2)C(=O)N1Nc1ccccc1 [fenamidone, (S)-3,5-dihydro-5-methyl-2-(methylthio)-5-phenyl-3-(phenylamino)-4H-imidazol-4-one]	9.764	6.26 (≈ 20.1 µM)									0	0	5	29	83	82	91	28
